Data on 1 molecule can be found in patent US6562817B1, “Tricyclic compound” (Shionogi & Co., Ltd., priority 1998, dated 2003).

In data set [1] the test system is anti-OVA IgE production in BALB/c mice. In words: Suppressive effect on the IgE production against ovalbumin (OVA): anti-OVA IgE antibody titer (PCA titer). It counts as in vivo, mouse. The conditions noted are these: BALB/c mice immunized with OVA, 40 mg/kg orally for 10 days; titer = highest 2^n serum dilution positive in rat PCA. As to the method:
Suppressive effect on the IgE Production Against ovalbumin (OVA)
BALB/c mice (female, 8-10 weeks old) and Wistar rats (female, 8-10 weeks old) which were bought from Japan SLC, Inc. (Shizuoka) were used.
BALB/c mice were immunized by an intraperitoneal administration of 0.2 ml suspension of 2 μg of ovalbumin (OVA) and 2 mg of aluminium hydroxide gel in physiological saline. After 10 days, blood was collected from hearts, then sera were separated and stocked at −40° C. till the measurement of IgE antibody titer.
After the compound of the present invention was dissolved or suspended in N,N-dimethylacetoamide, the mixture was diluted 20 times with miglyol 812 neutral oil. The obtained solution was orally administered to mice at 0.1 ml per mouse (dose 40 mg/kg). The administration was continued for 10 days from the immunizing day to the day before the blood collection.
The obtained mouse serum was 2-fold diluted with physiological saline, then each 50 μl of the solution was intradermally injected at dorsal skin of Wistar rats which previously hair cut. After 24 hours, a passive cutaneous anaphylaxis reaction (PCA) was induced by an intravenous injection of 0.5 ml of physiological saline containing 1 mg of OVA and 5 mg of Evans' blue dye. The rats were sacrified 30 minutes later and the highest dilution giving bluing with a diameter of 5 mm or more was recorded as the PCA titer. […]

With `CC(C)=CCNc1ccc(-c2cc(C)c(-c3ccc(OCC=C(C)C)nc3)cc2C)c(F)c1` [Ib-250], the melting point was 87 to 88 °C. In addition, the “PCA Titer” value in data set [1] came to 0.

Broadly, the melting point is the temperature, or range, at which the solid turns liquid.
